US10959966B2, “Compositions and methods for modulating HEXM1 expression” (CASE WESTERN RESERVE UNIVERSITY, priority 2014, dated 2021)

Experiments:
[1] = system: HEXIM1 expression in LNCaP prostate cancer cells; assay: HEXIM1 expression by western blot in LNCaP cells treated with HMBA analogs; assay type: cell-based; conditions: LNCaP cells, 24 h, western blot normalized to β-actin; for HEXIM1 expression induction at lower concentration: analogs at 100 μM; for HEXIM1 expression compared to the vehicle treatment (cutoff 2.5 fold): analogs at 500 μM
Procedure: (§1) FIGS. 2(A-B) illustrate Western blots and a graph showing the effect of HMBA analogs on HEXIM1 expression. LNCaP cells were treated with vehicle, HMBA (5 mM) and its analogs at 500 μM for 24 h. Level of HEXIM1 (upper panel) and β-actin (lower panel) was analyzed by Western blot of cell extracts with HEXIM1 antibody and β-actin antibody respectively. The bands of HEXIM1 were quantified using ImageJ (NIH) and normalized to β-actin. The results are the representative of three independent experiments.
as §1, with “3(A-B)” for “2(A-B)”, “lower concentration” for “the effect”, “identified” for “its”, “100” for “500”
FIGS. 4(A-B) illustrate Western blots and a graph showing dose-dependent study of compound 4a1 and HMBA on HEXIM1 expression. Level of HEXIM1 (upper panel) and β-actin (lower panel) was analyzed by Western blot of cell extracts with HEXIM1 antibody and β-actin antibody respectively.
HMBA analogs described herein can be synthesized based on the HMBA scaffold and then selected for their ability to induce HEXIM1 expression in an in vitro cell assay. For example, the synthesized HMBA analogs can be administered to cells, such as LNCaP prostate cancer cells, and the level of HEXIM1 in such cells can be measured using western blot analyses. The level of HEXIM1 expression of cells that are treated with a potential HMBA analog can be compared to control cells treated without the HMBA analog or with HMBA. Control cells (untreated or treated with HMBA) can be assigned a relative HEXIM1 expression value. Induction or promotion of HEXIM1 expression is achieved when the HEXIM1 expression relative to the control is increased at least about 1%, 5%, 10%, 15%, 20%, 30%, 50%, 75%, 100%, 200%, or more.
The synthesis of the symmetrical and unsymmetrical derivatives is described in Scheme 1 and 2, respectively. For the symmetrical analogs, moieties A and C were kept identical. Besides the acetyl group of HMBA, methanesulfonyl group, propionyl group or butyryl group were introduced. In addition, a bulky benzoyl group was introduced. The active proton in the amide moiety was replaced with methyl group to generate a series of analogs with lower solubility. For the moiety B, various linkers such as 1,3-propylene, […] 1,4-cyclohexylene, 1,4-phenylene-bis(methylene), 1,4-cyclohexylene-bis(methylene) were tested for optimization. For the unsymmetrical analogs, the A and B moieties were kept the same as HMBA while the C moiety was modified with aryl or alkyl amide. A total of 32 compounds were synthesized, and these compounds were examined for their potency to induce HEXIM1 in LNCaP prostate cancer cells. HMBA (5 mM) was used as a positive control.
(§2) Therefore, these three compounds were screened at lower concentrations.

LNCaP cells = assay: Cell morphology after treatment, to exclude compounds causing cell toxicity; conditions: 500 μM
Description: Cell morphology was examined after the treatment to exclude compounds that caused cell toxicity.

[2] = Precipitation of compounds in cell culture; assay type: physicochemical; conditions: 500 μM
Procedure: as §2
Some compounds were further evaluated at a lower concentration of 100 μM (FIG. 3). […] The variation in potency could be due to the precipitation of the two compounds at 500 μM, which hampers cell penetration. […] Due to the unsymmetrical structural characteristic of 4a1, a dose-dependent study was performed and the results are presented in FIG. 4.

SMILES | HEXIM1 expression induction at lower concentration [1] | HEXIM1 expression compared to the vehicle treatment (cutoff 2.5 fold) [1] | Cell morphology after the treatment (LNCaP cells) | Precipitation during the treatment [2]
CCC(=O)NCCCCCCNC(=O)CC [Compound 2a4] | reduced activity |  |  | 
CCCC(=O)NCCCCCCNC(=O)CCC [Compound 2a5] | reduced activity |  |  | 
CC(=O)NCC1CCC(CNC(C)=O)CC1 (stereo not shown) [Compound 2c1] |  | reached this cutoff | cell morphology slightly changed | 
CC(=O)NC1CCC(NC(C)=O)CC1 (stereo not shown) [Compound 2d1] | not able to induce HEXIM1 expression |  |  | 
CS(=O)(=O)NCCCNS(C)(=O)=O [Compound 2f2] | not able to induce HEXIM1 expression |  |  | 
CN(CCCCCCN(C)S(C)(=O)=O)S(C)(=O)=O [Compound 3a2] | significant activity | did not reach the cutoff |  | precipitation
CC(=O)N(C)Cc1ccc(CN(C)C(C)=O)cc1 [Compound 3b1] | 3.8 fold |  |  | 
CN(Cc1ccc(CN(C)S(C)(=O)=O)cc1)S(C)(=O)=O [Compound 3b2] | 2 fold |  |  | 
CN(CC1CCC(CN(C)S(C)(=O)=O)CC1)S(C)(=O)=O (stereo not shown) [Compound 3c2] | not able to induce HEXIM1 expression |  |  | 
CC(=O)N(C)C1CCC(N(C)C(C)=O)CC1 (stereo not shown) [Compound 3d1] | not able to induce HEXIM1 expression |  |  | 
CN(C1CCC(N(C)S(C)(=O)=O)CC1)S(C)(=O)=O (stereo not shown) [Compound 3d2] | significant activity | did not reach the cutoff |  | precipitation
CN(CCCN(C)S(C)(=O)=O)S(C)(=O)=O [Compound 3f2] | not able to induce HEXIM1 expression | did not reach the cutoff |  | precipitation
COc1ccc(C(=O)NCCCCCCNC(C)=O)cc1 [Compound 4a3] |  | reached this cutoff |  | 
CC(=O)NCCCCCCNC(=O)c1ccc(-c2ccccc2)cc1 [Compound 4a4] | not able to induce HEXIM1 expression | did not reach the cutoff |  | 
